Test results reported in patent US20220310273A1, “SYSTEM FOR EVALUATING SENSITIVITY TO ANTI-CANCER AGENT AND A COMPUTER READABLE MEDIUM STORING PROGRAMS EXECUTING AN EVALUATING METHOD” (MBD Co., Ltd., priority 2021, published 2022).

Test system: cancer cells of biological individuals diagnosed with breast cancer
Test: evaluation of sensitivity to doxorubicin (DOX) in patient tissues, using cell colony growth rate and IC50 value
Settings: patient tissue #2 (breast cancer)

IC50 value: low
SMILES: COc1cccc2c1C(=O)c1c(O)c3c(c(O)c1C2=O)C[C@@](O)(C(=O)CO)C[C@@H]3O[C@H]1C[C@H](N)[C@H](O)[C@H](C)O1 [doxorubicin]
